Laboratory results from patent US20240360126A1, “PYRAZOLO[3,4-B]PYRIDINE COMPOUNDS FOR THE TREATMENT OF AUTOIMMUNE DISEASE” (Hoffmann-La Roche Inc., priority 2021, published 2024).

How the values were obtained:
hERG K+ channel = molecular target: T1, hERG K+ channel (Homo sapiens, UniProt Q12809); assay: hERG channel inhibition assay (patch-clamp, CHO-hERG cells); format: cell-based; details: for IC50 / IC20: CHO-hERG cells, whole-cell patch-clamp; for IC20: human, CHO cells stably expressing hERG; for hERG IC20/TLR7 IC50 / hERG IC20/TLR8 IC50 / hERG IC20/TLR9 IC50: safety ratio
T1 construct: expressed in transfected cells; host or cells: CHO (Chinese hamster ovary)
T1 sequence (Q12809 whole entry): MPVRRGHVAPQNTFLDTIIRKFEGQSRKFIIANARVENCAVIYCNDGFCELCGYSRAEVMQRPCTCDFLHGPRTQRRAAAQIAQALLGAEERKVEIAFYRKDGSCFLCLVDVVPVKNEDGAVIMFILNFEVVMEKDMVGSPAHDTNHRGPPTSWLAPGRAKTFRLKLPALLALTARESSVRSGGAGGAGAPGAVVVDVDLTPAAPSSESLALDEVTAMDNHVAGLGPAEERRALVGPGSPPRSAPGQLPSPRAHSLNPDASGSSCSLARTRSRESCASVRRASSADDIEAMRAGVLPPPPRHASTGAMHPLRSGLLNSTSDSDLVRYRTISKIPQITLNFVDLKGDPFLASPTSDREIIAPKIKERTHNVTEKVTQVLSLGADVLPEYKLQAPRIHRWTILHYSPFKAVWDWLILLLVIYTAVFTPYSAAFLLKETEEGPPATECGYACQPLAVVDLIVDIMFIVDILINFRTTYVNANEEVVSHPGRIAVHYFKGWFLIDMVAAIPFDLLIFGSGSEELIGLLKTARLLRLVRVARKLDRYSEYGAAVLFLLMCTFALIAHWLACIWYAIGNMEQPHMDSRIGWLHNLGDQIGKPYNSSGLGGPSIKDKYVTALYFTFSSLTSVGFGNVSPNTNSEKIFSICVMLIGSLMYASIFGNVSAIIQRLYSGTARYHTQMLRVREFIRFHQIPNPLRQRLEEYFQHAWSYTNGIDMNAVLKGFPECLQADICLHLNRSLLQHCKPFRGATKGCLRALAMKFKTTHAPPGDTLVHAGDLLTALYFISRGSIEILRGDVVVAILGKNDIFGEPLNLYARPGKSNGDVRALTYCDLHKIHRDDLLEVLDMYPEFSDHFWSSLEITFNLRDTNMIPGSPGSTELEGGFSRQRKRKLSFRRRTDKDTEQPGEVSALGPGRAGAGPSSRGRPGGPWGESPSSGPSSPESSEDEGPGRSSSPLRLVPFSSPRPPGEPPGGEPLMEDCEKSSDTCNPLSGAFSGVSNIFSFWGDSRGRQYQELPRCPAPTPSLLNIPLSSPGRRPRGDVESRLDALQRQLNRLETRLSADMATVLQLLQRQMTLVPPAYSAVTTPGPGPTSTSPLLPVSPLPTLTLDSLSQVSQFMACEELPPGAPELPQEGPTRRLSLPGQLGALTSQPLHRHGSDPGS
Protocol: The hERG K^+ channels were cloned in humans and stably expressed in a CHO (Chinese hamster ovary) cell line. CHOhERG cells were used for patch-clamp (voltage-clamp, whole-cell) experiments. Cells were stimulated by a voltage pattern to activate hERG channels and conduct IKhERG Currents (rapid delayed outward rectifier potassium current of the hERG channel). After the cells were stabilized for a few minutes, the amplitude and kinetics of IKhERG were recorded at a stimulation frequency of 0.1 Hz (6 bpm). Thereafter, the test compound was added to the preparation at increasing concentrations. For each concentration, an attempt was made to reach a steady-state effect, usually, this was achieved within 3-10 min at which time the next highest concentration was applied. The amplitude and kinetics of IKhERG are recorded in each concentration of the drug which were compared to the control values (taken as 100%). (references: Redfe W S, Carlsson L, Davis A S, Lynch W G, MacKenzie I, Palethorpe S, Siegl P K, Strang I, Sullivan A T, Wallis R, Camm A J, Hammond T G. 2003; Relationships between preclinical cardiac electrophysiology, clinical QT interval prolongation and torsade de pointes for a broad range of drugs: evidence for a provisional safety margin in drug development. Cardiovasc. Res. 58:32-45, Sanguinetti M C, Tristani-Firouzi M. 2006; hERG potassium channels and cardiac arrhythmia. Nature 440:463-469, Webster R, Leishman D, Walker D. 2002; Towards a drug concentration effect relationship for QT prolongation and torsades de pointes. Curr. Opin. Drug Discov. Devel. 5:116-26).

TLR9 = molecular target: T2, TLR9 (Homo sapiens, UniProt Q9NR96); assay: Human PBMC cell-based assay; design: These cells express TLR7, TLR8, or TLR9, and therefore are natural responders to respective ligand stimulation; endogenous in cells; host or cells: human PBMC from healthy donor whole blood; details: CpG ODN 2216 at 1 μM, read-out: hPBMC/TLR9 IC50
T2 sequence (Q9NR96 26-1032): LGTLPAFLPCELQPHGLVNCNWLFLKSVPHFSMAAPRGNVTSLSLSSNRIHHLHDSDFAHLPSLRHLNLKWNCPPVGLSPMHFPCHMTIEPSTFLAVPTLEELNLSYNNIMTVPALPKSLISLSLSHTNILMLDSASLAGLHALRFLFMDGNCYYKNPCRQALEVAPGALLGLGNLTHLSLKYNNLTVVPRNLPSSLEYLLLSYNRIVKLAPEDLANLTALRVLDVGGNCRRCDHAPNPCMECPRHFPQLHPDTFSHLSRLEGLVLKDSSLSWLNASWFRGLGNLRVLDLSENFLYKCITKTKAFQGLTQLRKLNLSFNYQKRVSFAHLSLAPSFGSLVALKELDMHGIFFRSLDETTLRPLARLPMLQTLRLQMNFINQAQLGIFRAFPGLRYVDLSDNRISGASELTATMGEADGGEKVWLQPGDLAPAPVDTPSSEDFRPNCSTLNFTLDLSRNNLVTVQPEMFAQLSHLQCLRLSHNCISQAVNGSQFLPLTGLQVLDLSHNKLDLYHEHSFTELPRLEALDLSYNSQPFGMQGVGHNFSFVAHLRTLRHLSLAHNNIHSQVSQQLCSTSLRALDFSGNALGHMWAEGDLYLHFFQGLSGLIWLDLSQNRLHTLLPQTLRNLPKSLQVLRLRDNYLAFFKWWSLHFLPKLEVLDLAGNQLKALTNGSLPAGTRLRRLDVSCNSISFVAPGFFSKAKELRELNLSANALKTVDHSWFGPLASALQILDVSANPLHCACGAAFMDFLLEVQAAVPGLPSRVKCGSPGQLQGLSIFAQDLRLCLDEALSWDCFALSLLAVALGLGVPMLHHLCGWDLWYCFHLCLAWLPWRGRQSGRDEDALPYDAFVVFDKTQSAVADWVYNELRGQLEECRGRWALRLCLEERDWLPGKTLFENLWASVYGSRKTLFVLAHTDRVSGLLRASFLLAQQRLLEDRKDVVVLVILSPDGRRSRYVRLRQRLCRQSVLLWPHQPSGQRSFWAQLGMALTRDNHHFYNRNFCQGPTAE
From the text: Unlike the HEK reporter cell lines, human peripheral blood mononuclear cell (PBMC) represents primary human immune cells in blood mainly consisting of lymphocytes, monocytes, and dendritic cells. These cells express TLR7, TLR8, or TLR9, and therefore are natural responders to respective ligand stimulation. Upon activation of these TLRs, PBMCs secrete similar cytokines and chemokines in vitro and in vivo, and therefore the in vitro potency of a TLR7/8/9 antagonist in human PBMC is readily translatable to its pharmacodynamics response in vivo.
Human peripheral blood mononuclear cells (PBMC) were isolated from freshly-drawn lithium-heparinized (Lithium Heparin Plus blood Collection tube, BD Vacutainer®) healthy donor whole blood by density gradient (Ficoll-Paque™ PLUS, GE Healthcare life Sciences). Briefly, […] was diluted with 25 mL PBS (without Ca^2+, Mg^2+) in a 50 mL conical tube with porous barrier (Leucosep tube, Greiner bio-one), where 15.5 mL Ficoll-Paque was under laid after spinning. Tubes were centrifuged for 20 minutes at 800×g (1946 rpm) with the brake in the off position, and PBMC were collected from the buffy coat. Cells were then washed twice in PBS, and red blood cells were lysed by suspension in 2 mL (Red Blood Cell Lysis Buffer, Alfa Aesar) for 5-10 minutes at room temperature. After a final wash in PBS, PBMC were resuspended at a final concentration of 2×10^6 cells/mL in RPMI-1640 media with GlutaMAX™ (Gibco) supplemented with 10% Fetal Bovine Serum (Sigma) and plated at 150 μL/well (3×10^5 cells/well) in tissue culture treated round bottom 96-well plates (Corning Incorporated). Antagonist compounds (compounds of this invention) solubilized and serial diluted in 100% DMSO were added in duplicate to cells to yield a final concentration of 1% DMSO (v/v). PBMC were incubated with antagonist compounds for 30 minutes at 37° C., 5% CO2 before adding various TLR agonist reagents in 48 μL complete media per well as follows (final concentrations indicated): CpG ODN 2216 (InvivoGen) at 1 μM for TLR9, ORN 06/LyoVec (InvivoGen) at […] for TLR8 and R848 (InvivoGen) at 1 μg/mL for TLR7 and TLR8. PBMC were incubated overnight at 37° C. with 5% C02. Cell culture supernatants were collected, and levels of various human cytokines were assessed by Luminex assay (ProcartaPlex™ Multiplex Immunoassay, Invitrogen) or ELISA procedure according to the manufacturer's recommended protocol (eBioscience, ThermoFisher Scientific). Viability of the cells was also checked with Cell Viability Assay (CellTiter Glo® Luminescent Cell Viability Assay, Promega).

In the case of `CO[C@@H]1CN(c2ccc([C@H]3CCN(c4cc(C)nc5c4cnn5C)C[C@@H]3C)nc2)C[C@H]1N` [Example 36, (3R,4R)-1-[6-[(3R,4S)-1-(1,6-dimethylpyrazolo[3,4-b]pyridin-4-yl)-3-methyl-4-piperidyl]-3-pyridyl]-4-methoxy-pyrrolidin-3-amine], the IC50 (hERG K+ channel) is reported as greater than 20 µM, the IC20 (hERG K+ channel) is reported as greater than 10 µM and the “hERG IC20/TLR7 IC50” value (hERG K+ channel) is reported as greater than 555.6. For the same compound, the “hERG IC20/TLR8 IC50” value (hERG K+ channel) was greater than 476.2 and the “hERG IC20/TLR9 IC50” value (hERG K+ channel) was greater than 58.8.
With `Cc1cc(N2CCC(c3cnc(N4CCNCC4)nc3C)CC2)c2cnn(C)c2n1` [Example 11, 1,6-dimethyl-4-[4-(4-methyl-2-piperazin-1-yl-pyrimidin-5-yl)-1-piperidyl]pyrazolo[3,4-b]pyridine] the IC50 (hERG K+ channel) was greater than 20 µM, the IC20 (hERG K+ channel) was 7.5 µM and the “hERG IC20/TLR7 IC50” value (hERG K+ channel) was 202.7. For the same compound, the “hERG IC20/TLR8 IC50” value (hERG K+ channel) was 178.6 and the “hERG IC20/TLR9 IC50” value (hERG K+ channel) was 72.1.
In the case of `Cc1cc(N2CCC(c3ncc(N4CCNCC4)cc3C)[C@H](C)C2)c2cnn(C)c2n1` (single isomer, unassigned) [Example 25, 1,6-dimethyl-4-[trans-3-methyl-4-(3-methyl-5-piperazin-1-yl-2-pyridyl)-1-piperidyl]pyrazolo[3,4-b]pyridine], the IC50 (hERG K+ channel) is reported as greater than 20 µM, the IC20 (hERG K+ channel) is reported as greater than 10 µM and the “hERG IC20/TLR7 IC50” value (hERG K+ channel) is reported as greater than 1111.1. The “hERG IC20/TLR8 IC50” value (hERG K+ channel) was greater than 1428.6, the “hERG IC20/TLR9 IC50” value (hERG K+ channel) was greater than 102.0 and the IC50 (TLR9) was 0.32 µM.
In the case of `Cc1cc(N2CC[C@H](c3ccc(N4CCOC[C@@H](N)C4)cn3)[C@@H](C)C2)c2cnn(C)c2n1` [Example 40, (6S)-4-[6-[(3R,4S)-1-(1,6-dimethylpyrazolo[3,4-b]pyridin-4-yl)-3-methyl-4-piperidyl]-3-pyridyl]-1,4-oxazepan-6-amine], the IC50 (hERG K+ channel) is reported as greater than 20 µM, the IC20 (hERG K+ channel) is reported as 5.9 µM and the “hERG IC20/TLR7 IC50” value (hERG K+ channel) is reported as 655.6. The “hERG IC20/TLR8 IC50” value (hERG K+ channel) was 842.9, the “hERG IC20/TLR9 IC50” value (hERG K+ channel) was 34.1 and the IC50 (TLR9) was 0.54 µM.
For `Cc1cc(N2CCC(c3ccc(N4CCNCC4)cc3)CC2)c2cnn(C)c2n1` [Example 1, 1,6-dimethyl-4-[4-(4-piperazin-1-ylphenyl)-1-piperidyl]pyrazolo[3,4-b]pyridine], the IC50 (hERG K+ channel) was greater than 10 µM, the IC20 (hERG K+ channel) was 4 µM and the “hERG IC20/TLR7 IC50” value (hERG K+ channel) was 75.5. The “hERG IC20/TLR8 IC50” value (hERG K+ channel) was 333.3 and the “hERG IC20/TLR9 IC50” value (hERG K+ channel) was 14.5.
In the case of `COC[C@H]1CN(c2ccc([C@H]3CCN(c4cc(C)nc5c4cnn5C)C[C@@H]3C)nc2)CCN1` [Example 37, 4-[(3R,4S)-4-[5-[(3R)-3-(methoxymethyl)piperazin-1-yl]-2-pyridyl]-3-methyl-1-piperidyl]-1,6-dimethyl-pyrazolo[3,4-b]pyridine], the IC50 (hERG K+ channel) is reported as greater than 20 µM, the IC20 (hERG K+ channel) is reported as greater than 10 µM and the “hERG IC20/TLR7 IC50” value (hERG K+ channel) is reported as greater than 1111.1. The “hERG IC20/TLR8 IC50” value (hERG K+ channel) was greater than 769.2 and the “hERG IC20/TLR9 IC50” value (hERG K+ channel) was greater than 30.1.
For `Cc1cc(N2CC[C@H](c3ccc(N4CCNCC4)cn3)[C@@H](C)C2)c2cnn(C)c2n1` [Example 35, 1,6-dimethyl-4-[(3R,4S)-3-methyl-4-(5-piperazin-1-yl-2-pyridyl)-1-piperidyl]pyrazolo[3,4-b]pyridine], the IC50 (hERG K+ channel) was greater than 10 µM, the IC20 (hERG K+ channel) was 4.4 µM and the “hERG IC20/TLR7 IC50” value (hERG K+ channel) was 733.3. For the same compound, the “hERG IC20/TLR8 IC50” value (hERG K+ channel) was 488.9, the “hERG IC20/TLR9 IC50” value (hERG K+ channel) was 27.8 and the IC50 (TLR9) was 0.87 µM.
`Cc1cc(N2CC[C@H](c3ccc(N4CC5(CNCCO5)C4)cn3)[C@@H](C)C2)c2cnn(C)c2n1` [Example 38, 2-[6-[(3R,4S)-1-(1,6-dimethylpyrazolo[3,4-b]pyridin-4-yl)-3-methyl-4-piperidyl]-3-pyridyl]-5-oxa-2,8-diazaspiro[3.5]nonane] was tested, and the IC50 (hERG K+ channel) was greater than 20 µM, the IC20 (hERG K+ channel) was 5.2 µM and the “hERG IC20/TLR7 IC50” value (hERG K+ channel) was 400.0. The “hERG IC20/TLR8 IC50” value (hERG K+ channel) was 472.7 and the “hERG IC20/TLR9 IC50” value (hERG K+ channel) was 27.1.
`Cc1cc(N2CC[C@@H](c3ncc(N4CCOC[C@@H](N)C4)cc3C)[C@H](C)C2)c2cnn(C)c2n1` [Example 28, (6S)-4-[6-[(3S,4R)-1-(1,6-dimethylpyrazolo[3,4-b]pyridin-4-yl)-3-methyl-4-piperidyl]-5-methyl-3-pyridyl]-1,4-oxazepan-6-amine] was tested, and the IC50 (hERG K+ channel) was greater than 20 µM, the IC20 (hERG K+ channel) was 6.4 µM and the “hERG IC20/TLR7 IC50” value (hERG K+ channel) was 914.3. For the same compound, the “hERG IC20/TLR8 IC50” value (hERG K+ channel) was 3200.0, the “hERG IC20/TLR9 IC50” value (hERG K+ channel) was 50.8 and the IC50 (TLR9) was 0.52 µM.
`Cc1cc(N2CC[C@@H](c3ncc(N4CC[C@@H](N)[C@H](F)C4)cc3C)[C@H](C)C2)c2cnn(C)c2n1` [Example 31, (3R,4R)-1-[6-[(3S,4R)-1-(1,6-dimethylpyrazolo[3,4-b]pyridin-4-yl)-3-methyl-4-piperidyl]-5-methyl-3-pyridyl]-3-fluoro-piperidin-4-amine] was tested, and the IC50 (TLR9) was 0.41 µM.
Compound `COc1cc(N2CCNCC2)cnc1C1CCN(c2cc(C)nc3c2cnn3C)CC1` [Example 14, 4-[4-(3-methoxy-5-piperazin-1-yl-2-pyridyl)-1-piperidyl]-1,6-dimethyl-pyrazolo[3,4-b]pyridine] has an IC50 (TLR9) of 0.34 µM.
Work on `Cc1cc(N2CC[C@@H](c3ncc(N4CC5(CNCCO5)C4)cc3C)[C@H](C)C2)c2cnn(C)c2n1` [Example 27, 2-[6-[(3S,4R)-1-(1,6-dimethylpyrazolo[3,4-b]pyridin-4-yl)-3-methyl-4-piperidyl]-5-methyl-3-pyridyl]-5-oxa-2,8-diazaspiro[3.5]nonane] yielded an IC50 (TLR9) of 0.38 µM.
`Cc1cc(N2CCC(c3cnc(N4CCNCC4)cc3C)[C@H](C)C2)c2cnn(C)c2n1` (single isomer, unassigned) [Example 21, 1,6-dimethyl-4-[trans-3-methyl-4-(4-methyl-6-piperazin-1-yl-3-pyridyl)-1-piperidyl]pyrazolo[3,4-b]pyridine] showed an IC50 (TLR9) of 0.848 µM.
